Patent US20210045385A1, “PYRIDAZINONE-SUBSTITUTED KETOXIMES AS HERBICIDES” (FMC Corporation, priority 2018, published 2021)

Assays:
Format in all cases: in vivo
[1] = system: barnyardgrass (Echinochloa crus-galli); assay: Test D flooded paddy test, visual plant response rating; settings: 250 g ai/ha, scale 0 to 100 (0 no effect, 100 complete control), 13 to 15 d
Procedure, shortened: (§1)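 Greenhouse paddy assay scored on a 0–100 visual scale after 13 to 15 d, where 100 means complete control and a dash marks no result; dosing was into 3 cm floodwater over 2-leaf plants.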

[2] = system: sedge umbrella (small-flower umbrella sedge, Cyperus difformis); assay: as above; settings: 250 g ai/ha, scale 0 to 100 (0 no effect, 100 complete control), 13 to 15 d
Procedure, shortened: as §1

rice (Oryza sativa) = assay: as above; settings: 250 g ai/ha, scale 0 to 100 (0 no effect, 100 complete control), 13 to 15 d
Procedure, shortened: as §1

[3] = system: duck salad (Heteranthera limosa); assay: as above; settings: 250 g ai/ha, scale 0 to 100 (0 no effect, 100 complete control), 13 to 15 d
Procedure, shortened: as §1

kochia (Bassia scoparia) [4] = assay: Test C preemergence, visual plant response rating; settings: Test C, 0 is no effect, 100 is complete control
Procedure, shortened: (§2)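 Seeds sown in a loam–sand blend got a directed preemergence soil spray; postemergence plants (2–10 cm, one- to two-leaf stage) were sprayed with compound in a non-phytotoxic solvent plus surfactant. Injury was scored visually against untreated controls after about 10 d in a greenhouse on a 0–100 scale (100 = complete control).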

[5] = system: barnyardgrass (Echinochloa crus-galli); assay: Test C preemergence, visual plant response rating; settings: Test C, 0 is no effect, 100 is complete control
Procedure, shortened: as §2

[6] = system: Italian ryegrass (Lolium mutiflorum); assay: Test C preemergence, visual plant response rating; settings: Test C, 0 is no effect, 100 is complete control
Procedure, shortened: as §2

[7] = system: pigweed (Amaranthus retroflexus); assay: Test C preemergence, visual plant response rating; settings: Test C, 0 is no effect, 100 is complete control
Procedure, shortened: as §2

[8] = system: foxtail, giant (giant foxtail, Setaria faberi); assay: Test C preemergence, visual plant response rating; settings: Test C, 0 is no effect, 100 is complete control
Procedure, shortened: as §2

[9] = system: ragweed (common ragweed, Ambrosia artemisiifolia); assay: Test C preemergence, visual plant response rating; settings: Test C, 0 is no effect, 100 is complete control
Procedure, shortened: as §2

kochia (Bassia scoparia) [10] = assay: Test C postemergence, visual plant response rating
Procedure, shortened: as §2

[11] = system: galium (catchweed bedstraw, Galium aparine); assay: Test C postemergence, visual plant response rating
Procedure, shortened: as §2

[12] = system: barnyardgrass (Echinochloa crus-galli); assay: Test C postemergence, visual plant response rating
Procedure, shortened: as §2

[13] = system: wheat (Triticum aestivum); assay: Test C postemergence, visual plant response rating
Procedure, shortened: as §2

[14] = system: blackgrass (Alopecurus myosuroides); assay: Test C postemergence, visual plant response rating
Procedure, shortened: as §2

[15] = system: Italian ryegrass (Lolium mutiflorum); assay: Test C postemergence, visual plant response rating
Procedure, shortened: as §2

[16] = system: pigweed (Amaranthus retroflexus); assay: Test C postemergence, visual plant response rating
Procedure, shortened: as §2

[17] = system: foxtail, giant (giant foxtail, Setaria faberi); assay: Test C postemergence, visual plant response rating
Procedure, shortened: as §2

corn (Zea mays) = assay: Test C postemergence, visual plant response rating
Procedure, shortened: as §2

[18] = system: ragweed (common ragweed, Ambrosia artemisiifolia); assay: Test C postemergence, visual plant response rating
Procedure, shortened: as §2

[19] = Test C, postemergence, 125 g ai/ha

| Compound | Plant response rating, Barnyardgrass (Flood) [1] | Plant response rating, Sedge, Umbrella (Flood) [2] | Plant response rating, Rice (Flood) (rice (Oryza sativa)) | Plant response rating, Ducksalad (Flood) [3] | Kochia plant response rating (0 to 100 scale) (kochia (Bassia scoparia) [4]; 31 g ai/ha) | Kochia plant response rating (0 to 100 scale) (kochia (Bassia scoparia) [4]; 125 g ai/ha) | Barnyardgrass plant response rating (0 to 100 scale) ([5]; 31 g ai/ha) | Barnyardgrass plant response rating (0 to 100 scale) ([5]; 125 g ai/ha) | Ryegrass, Italian plant response rating (0 to 100 scale) ([6]; 31 g ai/ha) | Ryegrass, Italian plant response rating (0 to 100 scale) ([6]; 125 g ai/ha) | Pigweed plant response rating (0 to 100 scale) ([7]; 31 g ai/ha) | Pigweed plant response rating (0 to 100 scale) ([7]; 125 g ai/ha) | Foxtail, Giant plant response rating (0 to 100 scale) ([8]; 31 g ai/ha) | Foxtail, Giant plant response rating (0 to 100 scale) ([8]; 125 g ai/ha) | Ragweed plant response rating (0 to 100 scale) ([9]; 31 g ai/ha) | Ragweed plant response rating (0 to 100 scale) ([9]; 125 g ai/ha) | Kochia plant response rating (0 to 100 scale) (kochia (Bassia scoparia) [10]; Postemergence, 31 g ai/ha) | Kochia plant response rating (0 to 100 scale) (kochia (Bassia scoparia) [10]; [19]) | Galium plant response rating (0 to 100 scale) ([11]; Postemergence, 31 g ai/ha) | Galium plant response rating (0 to 100 scale) [11, 19] | also measured |
| --- | --- | --- | --- | --- | --- | --- | --- | --- | --- | --- | --- | --- | --- | --- | --- | --- | --- | --- | --- | --- | --- |
| CON=C(c1cc(F)cc(F)c1F)c1c(O)c(C)nn(C)c1=O [Compound 226] | 0 | 0 | 0 | 0 | 0 | 40 | 0 | 0 | 30 | 70 | 30 | 70 | 10 | 10 | 30 | 70 | 20 | 60 | 50 | 90 | Barnyardgrass plant response rating (0 to 100 scale) ([12]; Postemergence, 31 g ai/ha): 10; Barnyardgrass plant response rating (0 to 100 scale) [12, 19]: 20; Wheat plant response rating (0 to 100 scale) ([13]; Postemergence, 31 g ai/ha): 0; Wheat plant response rating (0 to 100 scale) [13, 19]: 0; Blackgrass plant response rating (0 to 100 scale) ([14]; Postemergence, 31 g ai/ha): 0; Blackgrass plant response rating (0 to 100 scale) [14, 19]: 0; Ryegrass, Italian plant response rating (0 to 100 scale) ([15]; Postemergence, 31 g ai/ha): 20; Ryegrass, Italian plant response rating (0 to 100 scale) [15, 19]: 50; Pigweed plant response rating (0 to 100 scale) ([16]; Postemergence, 31 g ai/ha): 30; Pigweed plant response rating (0 to 100 scale) [16, 19]: 50; Foxtail, Giant plant response rating (0 to 100 scale) ([17]; Postemergence, 31 g ai/ha): 30; Foxtail, Giant plant response rating (0 to 100 scale) [17, 19]: 40; Corn plant response rating (0 to 100 scale) (corn (Zea mays); Postemergence, 31 g ai/ha): 0; Corn plant response rating (0 to 100 scale) (corn (Zea mays); [19]): 0; Ragweed plant response rating (0 to 100 scale) ([18]; Postemergence, 31 g ai/ha): 30; Ragweed plant response rating (0 to 100 scale) [18, 19]: 70 |
| CON=C(c1cc(F)cc(F)c1F)c1c(O)c(C)nn(C)c1=O [Compound 227] | 0 | 0 | 0 | 0 | 0 | 10 | 0 | 20 | 30 | 60 | 0 | 10 | 0 | 30 | 20 | 80 | 30 | 70 | 60 | 80 | Barnyardgrass plant response rating (0 to 100 scale) ([12]; Postemergence, 31 g ai/ha): 0; Barnyardgrass plant response rating (0 to 100 scale) [12, 19]: 20; Wheat plant response rating (0 to 100 scale) ([13]; Postemergence, 31 g ai/ha): 0; Wheat plant response rating (0 to 100 scale) [13, 19]: 0; Blackgrass plant response rating (0 to 100 scale) ([14]; Postemergence, 31 g ai/ha): 0; Blackgrass plant response rating (0 to 100 scale) [14, 19]: 0; Ryegrass, Italian plant response rating (0 to 100 scale) ([15]; Postemergence, 31 g ai/ha): 20; Ryegrass, Italian plant response rating (0 to 100 scale) [15, 19]: 40; Pigweed plant response rating (0 to 100 scale) ([16]; Postemergence, 31 g ai/ha): 30; Pigweed plant response rating (0 to 100 scale) [16, 19]: 50; Foxtail, Giant plant response rating (0 to 100 scale) ([17]; Postemergence, 31 g ai/ha): 0; Foxtail, Giant plant response rating (0 to 100 scale) [17, 19]: 0; Corn plant response rating (0 to 100 scale) (corn (Zea mays); Postemergence, 31 g ai/ha): 0; Corn plant response rating (0 to 100 scale) (corn (Zea mays); [19]): 0; Ragweed plant response rating (0 to 100 scale) ([18]; Postemergence, 31 g ai/ha): 20; Ragweed plant response rating (0 to 100 scale) [18, 19]: 50 |
| C#CCO/N=C(/c1ccc(F)c(Cl)c1)c1c(O)c(C)nn(C)c1=O [Compound 229] | 0 | 0 | 0 | 0 | 0 | 0 | 0 | 30 | 20 | 90 | 10 | 40 | 10 | 30 | 0 | 0 | 0 | 0 | 60 | 80 | Barnyardgrass plant response rating (0 to 100 scale) ([12]; Postemergence, 31 g ai/ha): 0; Barnyardgrass plant response rating (0 to 100 scale) [12, 19]: 30; Wheat plant response rating (0 to 100 scale) ([13]; Postemergence, 31 g ai/ha): 30; Wheat plant response rating (0 to 100 scale) [13, 19]: 60; Blackgrass plant response rating (0 to 100 scale) ([14]; Postemergence, 31 g ai/ha): 50; Blackgrass plant response rating (0 to 100 scale) [14, 19]: 0; Ryegrass, Italian plant response rating (0 to 100 scale) ([15]; Postemergence, 31 g ai/ha): 40; Ryegrass, Italian plant response rating (0 to 100 scale) [15, 19]: 70; Pigweed plant response rating (0 to 100 scale) ([16]; Postemergence, 31 g ai/ha): 20; Pigweed plant response rating (0 to 100 scale) [16, 19]: 50; Foxtail, Giant plant response rating (0 to 100 scale) ([17]; Postemergence, 31 g ai/ha): 10; Foxtail, Giant plant response rating (0 to 100 scale) [17, 19]: 40; Corn plant response rating (0 to 100 scale) (corn (Zea mays); Postemergence, 31 g ai/ha): 0; Corn plant response rating (0 to 100 scale) (corn (Zea mays); [19]): 40; Ragweed plant response rating (0 to 100 scale) ([18]; Postemergence, 31 g ai/ha): 10; Ragweed plant response rating (0 to 100 scale) [18, 19]: 20 |
